Data taken from a melting point compilation (Tetko et al.; mined from patent text by program, amines drawn as free bases though some values may be those of a salt).

Row | melting point [°C] | SMILES
1 | 167 to 169 | O=C(O)c1ccc(NCCCc2ccccc2)cn1
2 | 125 to 126 | O=C(C=Cc1cccc(Br)c1)c1cnc2sc3c(n12)CCCCC3
3 | 203 to 204 | CCCCNC(=O)Nc1ccc(NC)cc1C(=O)NCC1CCN(C(c2ccccc2)c2ccccc2)CC1
4 | 188 to 189 | Cc1cc2c(cc1C(F)(F)F)N(C(=O)Nc1cnc(OCc3ccccn3)c(C)c1)CC2
5 | 229 to 231 | COc1cc(-c2cnc3[nH]cc(C(=O)C4(C)CCCC(C)C4)c3n2)cc(OC)c1OC (stereo not drawn)
6 | 254 to 256 | CCOC(=O)C1=NNc2ccc(-c3ccc(Cl)cc3)cc2C1
7 | 205 to 207 | CCn1ncc2c(NCC3CCCCC3)c3ccc([N+](=O)[O-])cc3nc21
8 | 61 | COC(=O)CCNc1ccc(CNC(=O)C2Cc3ccccc3N2S(=O)(=O)c2ccc(-c3cccc(C(F)(F)F)c3)cc2)cc1 (stereo not drawn)
9 | 65 | CN(CCCNc1ncc(Cc2ccc(Cl)cc2)c(=O)[nH]1)c1ccccn1
10 | 85 to 87 | CCOC(=O)C(N=CC1C=C(Cl)C=CC1(OC(C)=O)c1ccccc1)C(=O)OCC (stereo not drawn)
11 | 207 | CN(C)CC(=Cc1ccc(/C=C/C(=O)O)cc1)O[Si](C)(C)C(C)(C)C
12 | 193 | Fc1ccc2c(CCN=c3sc4ccccc4s3)c[nH]c2c1
13 | 106 to 110 | O=C(c1cccs1)c1cnn2c(-c3cccc(-c4ccc(CO)cc4)c3)ccnc12
14 | 81 | COC(=O)[C@H](Cc1cc(F)cc(F)c1)NC(=O)OC(C)(C)C
15 | 120 to 122 | O=C(O)c1ccc(OCCCN(CCO)c2ccc(Cl)cc2)cc1
16 | 109 to 110 | CCOC(=O)C(C#N)=Cc1ccc(OC)c(OC2CCCC2)c1
17 | 110 to 113 | CCCCCCC(C(=O)O)n1cc(CC)c2cc(-c3ccccc3-c3nn[nH]n3)ccc21 (stereo not drawn)
18 | 107 to 109 | COc1ccc(-c2cc3c(OC)c(Br)c(OC)cc3o2)cc1
19 | 107 to 108 | COc1cn(C)c(=O)c(OS(=O)(=O)C(F)(F)F)n1
20 | 78 to 80 | CCC(CCSc1cc(OC)c(O)c(OC)c1)(c1cccs1)N(C)C (stereo not drawn)
21 | 201 to 203 | Oc1cccc(C=Cc2nc(-c3ccccc3)c(-c3ccccc3)o2)c1
22 | 254 to 257 | CCCn1cc(C(=O)O)c(=O)c2cnc(N3CCN(C)CC3)nc21
23 | 217 to 219 | Cc1ccc(-c2c3ccccc3nc3ccc(N(S(C)(=O)=O)S(C)(=O)=O)cc23)cc1

Row | melting point [°C] | SMILES
24 | 138 to 145 | Nc1nc(-c2cc(Cl)ccc2Cl)nc(N2CC(O)CC2C(=O)O)n1 (stereo not drawn)
25 | 121 to 123 | CCOC(=O)Cc1c(C)n(-c2ncnc3ccccc23)c2ccc(OC)cc12
26 | 170 to 172 | C(=C(c1ccccc1)N(c1ccccc1)c1ccccc1)c1cccc2ccccc12
27 | 78 to 79 | Cc1c(C#N)ccc(Cl)c1Cl
28 | 209 to 211 | Cc1coc(NC(=O)C(c2ccccc2)c2ccccc2)n1
29 | 210 to 212 | O=C(Nc1cccc(F)n1)c1cc(-c2ccc(O)cc2)nc2ccccc12
30 | > 260 | N#Cc1ccc(-c2ccc(-c3nc(N)nc(N)n3)cc2)cc1
31 | 221 to 224 | O=C(c1ccc2n1Cc1ccccc1N(C(=O)c1ccc(-c3cccc4ccccc34)cc1)C2)N(CCO)CCO
32 | 119 | COC(=O)CCc1cc2nc(C(F)(F)F)ccc2n1S(=O)(=O)c1ccccc1
33 | 63.5 to 64.5 | CCOC(=O)C1(Cc2ccc(OC)cc2)CCCC1
34 | 150 to 160 | COc1ccc(NC(=O)c2ccc(F)c(F)c2)cc1NS(=O)(=O)c1cccc([N+](=O)[O-])c1
35 | 124 to 125 | COC(=O)c1ccc2ncccc2c1C(=O)OC
36 | 99 to 101 | CCOC(=O)C1=C(C(=O)OCC)c2c(OC)ccc(Br)c2C1
37 | 51 to 52 | COC(=O)CCc1cnoc1-c1ccc(Cl)cc1
38 | 65 to 68 | O=C(c1cccs1)c1cc2c(c(Cl)c1Cl)OC(CO)C2 (stereo not drawn)
39 | 251 to 255 | O=C(O)c1ccc(NC(=O)C(CC2CCCC2)c2cccc(Cl)c2)nc1 (stereo not drawn)
40 | 215 to 220 | CC(=O)c1cccc(-c2ccc(COc3ccc(C(=O)O)c(O)c3)cc2)c1
41 | 336 to 338 | N#CC(C#N)=C1c2cc(N)c(Cl)cc2-c2cc(Cl)c(N)cc21
42 | 168 to 171 | Cn1cc(-c2ccccc2)c(=S)c(-c2ccccc2)c1
43 | 268 to 269 | O=Cc1c(Cl)c(Br)c(Br)c(Br)c1Br
44 | 119 | CC(O)(c1ccccc1)c1cc(C2CCCCC2)ccc1O (stereo not drawn)
45 | 234 | O=C(Cc1ccc(OCc2ccccc2)cc1)NC1(C(=O)O)Cc2ccc(-c3ccc(Cl)cc3)cc2C1 (stereo not drawn)
46 | 263 to 265 | Cc1cc(C)c2nn3c(SCc4ccccc4)nc(N)nc3c2n1

Row | melting point [°C] | SMILES
47 | 136 to 138 | CCCOc1ccc(SC(C)(C)C)cc1C(N)=O
48 | 175 | CCOC(=O)COc1ccc([N+](=O)[O-])cc1C1C(C(=O)OCC)=C(C)NC(C)=C1C(=O)OCC
49 | 157 to 158 | CC(C)(C)NS(=O)(=O)c1c[nH]c2ccccc12
50 | 190 | COc1ccc(CN(C)CCc2ccc(NC(=O)c3cccc4c(=O)c5cccc(SC)c5[nH]c34)cc2)cc1OC
51 | 147 to 148 | CCOC(=O)c1c(CCl)nc2cc(OC)c(OC)cc2c1-c1ccc(OC)c(OC)c1
52 | 39 to 41 | N#CSc1ccc(F)c(C#N)c1
53 | 128 to 131 | COc1ccc(CN2C(=O)C3CCCC3=Nc3ccccc32)cc1 (stereo not drawn)
54 | 137 to 139 | CN(Cc1cc2c3c(c1)c(=O)c(C(=O)NCc1ccc(Cl)cc1)cn3CC(=O)N2C)C[C@@H](O)c1ccsc1
55 | 132 to 135 | CC(C)(C)[C@H]1CC[C@H](CCC(=O)N2C(=O)OC[C@@H]2Cc2ccccc2)CC1
56 | 271 to 272 | O=C(Nc1ccc(SC(F)(F)F)cc1)c1cc(S(=O)(=O)c2ccccc2)c2ccccc2c1O
57 | 132 to 134 | CC(=O)Oc1ccc(N2C(=O)CC(=O)N2c2ccccc2)cc1
58 | 166 to 168 | CCn1ccc(OC2c3cc(C#N)ccc3OC(C)(C)C2(C)O)cc1=O (stereo not drawn)
59 | 127 to 130 | Cc1ccc2c(c1)c(-c1ccc(F)cc1)c(Cl)n2C1CCN(CCN2CCN(C(C)C)C2=O)CC1
60 | 198 to 200 | CCCOc1ccccc1Nc1ncc(C(=O)OCC)c(=O)[nH]1
61 | 200 to 202 | COc1c(C2CCN(CCCCNC(=O)c3ccc(-c4ccc(NS(C)(=O)=O)cc4)cc3)CC2)ccc2c1CCCC2
62 | 224 to 225 | CN(C)Cc1ccc(C=CC(=O)O)s1
63 | 209 to 210 | O=C1Cc2cccc(C(=O)c3ccccc3F)c2N1
64 | 141 to 142 | Cc1nn(C)c(OC(=O)C(Cl)=C(Cl)Cl)c1C(=O)c1ccc(Cl)cc1Cl
65 | 112 to 117 | CCOC(=O)C(C#N)=Cc1ccc(OC)c2c1CC(C)(C)O2
66 | 102 to 103 | CCCc1nn(-c2ccc(C(F)(F)F)cn2)cc1C(=O)OCC
67 | 113 to 114 | CCOC(=O)n1ccc2cc(N)ccc21
68 | 80 to 81 | CCOC(=O)C1CCN(c2nc(-c3ccc(Cl)cc3)c(CCCOc3ccccc3OC)o2)CC1
69 | 156 to 157 | Nc1cc(=O)n(Cc2ccc3ccccc3c2)[nH]1

Row | melting point [°C] | SMILES
70 | 225 | O=C1CC(c2ccccc2)c2cc(C(c3ccc(Cl)cc3)n3ccnc3)ccc2N1 (stereo not drawn)
71 | 84 to 88 | [N-]=[N+]=Nc1c([N+](=O)[O-])cnn1-c1c(Cl)cc(C(F)(F)F)c(Cl)c1Cl
72 | 142 | Cc1cc(Sc2cc(C)c(O)c(C)c2)cc(C)c1O
73 | 37 to 38 | O=C1N(CCCOCc2ccccc2)c2ccccc2C12COc1cc3c(cc12)OCCO3 (stereo not drawn)
74 | 105 to 108 | Nc1sc2c(c1C(=O)c1ccc3ccccc3c1)CCN(Cc1ccc(Cl)cc1)C2
75 | 77 to 78 | CCOC(=O)C(C#N)(CCCN(C)CCc1ccc(OC)c(OC)c1)c1ccc(OC)c(OC)c1 (stereo not drawn)
76 | 153 to 154 | CS(=O)(=O)c1ccc(-c2cnn(Cc3ccc(F)cc3)c(=O)c2-c2ccc(F)cc2)cc1
77 | 220 to 222 | CCOC(=O)c1cc(-c2ccc(C)cc2)n(-c2ccc(S(N)(=O)=O)cc2)n1
78 | 64.1 to 65.4 | CCCCCS(=O)(=O)NC(=O)CCc1ccc(OCCOC)cc1OC1CCCCC1
79 | 68 to 73 | Cc1c(-c2ccccc2)oc2c(C(=O)OCCN3CCOCC3)cc(Cl)cc2c1=O
80 | 177 | CC(=O)Nc1nc(S(=O)(=O)Cl)n[nH]1
81 | 223 to 225 | COc1ccc(/C=C/c2nc3cc([N+](=O)[O-])ccc3[nH]2)cc1OC
82 | 278 | Cc1c2ccccc2c(C)c2cc3c(cc12)C(=O)OC3=O
83 | 100 | CCCNC(=O)c1ccc2c(c1)N(C(C)CN(C)CC)c1ccccc1S2 (racemic)
84 | 127 to 128 | COc1nn(Cc2ccc(OCc3nc(-c4ccccc4)oc3C)cc2)cc1CCC(=O)O
85 | 97 to 99 | Cn1cc(OCC(F)(F)F)c(=O)c(-c2cccc(C(F)(F)F)c2)c1
86 | 140 to 143 | CCOC(=O)c1cn2c(-c3nn(C)c(OC(F)F)c3Cl)c(F)cc(Cl)c2n1
87 | 122 to 132 | Cc1noc(NS(=O)(=O)c2ccccc2-c2ccc(-c3ncco3)cc2CN(C)C(=O)c2ccc(Cl)cc2)c1C
88 | 53 to 54 | CCCc1cc(F)c2occ(C)c2c1O
89 | 106 to 107 | C=CCNc1nc(C=O)cs1
90 | 99 to 101 | COc1ccc(C(=O)O)c(OCc2ccccc2)c1
91 | 86 to 87 | CC(=O)OCCCCCCSCC(=O)c1ccc2c(c1)CC(=O)N2

Row | SMILES | melting point [°C]
92 | O=[N+]([O-])c1cnc2ccccc2c1NCC12CCCN1CCC2 | 155 to 158
93 | CSc1c[nH]nc1C1CN2CCC1CC2 (stereo not drawn) | 145 to 147
94 | CN1Cc2c(C#CC(C)(C)C)ncn2-c2cccc(Cl)c2C1=O | 126 to 128
95 | Cc1cccc2c(=O)[nH]c(C3CN4CCC3CC4)nc12 (stereo not drawn) | 230 to 231
96 | Nc1ncnc2c1ncn2Cc1nc2cc(F)ccc2c(=O)n1-c1ccccc1Cl | 217
97 | NCCc1ccc(OCC2CCCO2)c(S(N)(=O)=O)c1 (stereo not drawn) | 135 to 140
98 | CC12C=CC(=O)C=C1C(SC#N)C(O)C1C2CCC2(C)C(=O)CCC12 (stereo not drawn) | 206 to 208
